Test results reported in patent US10975068B2, “6-aminopyridin-3-yl thiazoles as modulators of RORγT” (Janssen Pharmaceutica NV, priority 2016, dated 2021).
Where two headings read alike, the source gives them in different places.

What was measured:
[1] = target: human RORγt ligand binding domain (RORγt LBD) (Homo sapiens (Human), UniProt P51449); assay: RORγt ThermoFluor® assay (thermal shift binding)
In short: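 His-tagged human RORγt LBD (0.065 mg/mL) with 60 μM 1,8-ANS in 100 mM Hepes pH 7.0, 10 mM NaCl, 2.5 mM GSH, 0.002% Tween-20 was heated at 1 °C/min.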

full-length human RORγt = full-length human RORγt (Homo sapiens (Human), UniProt P51449); assay: RORγt (full-length human) reporter assay, Conditions B or C; type: cell-based; conditions: for inhibition at 3 µM: at 3 μM compound concentration, read-out: RORγt (FL) Reporter Assay B or C, % inhibition; for RORγt (FL) Reporter Assay B or C, % inhibition (value marked *): marked *: footnote not given; for inhibition at 6 µM: read-out: RORγt (FL) Reporter Assay B or C, % inhibition @ 6 μM, Conditions B or C
full-length human RORγt, sequence (P51449 other isoform, or with tags, fused parts or gaps): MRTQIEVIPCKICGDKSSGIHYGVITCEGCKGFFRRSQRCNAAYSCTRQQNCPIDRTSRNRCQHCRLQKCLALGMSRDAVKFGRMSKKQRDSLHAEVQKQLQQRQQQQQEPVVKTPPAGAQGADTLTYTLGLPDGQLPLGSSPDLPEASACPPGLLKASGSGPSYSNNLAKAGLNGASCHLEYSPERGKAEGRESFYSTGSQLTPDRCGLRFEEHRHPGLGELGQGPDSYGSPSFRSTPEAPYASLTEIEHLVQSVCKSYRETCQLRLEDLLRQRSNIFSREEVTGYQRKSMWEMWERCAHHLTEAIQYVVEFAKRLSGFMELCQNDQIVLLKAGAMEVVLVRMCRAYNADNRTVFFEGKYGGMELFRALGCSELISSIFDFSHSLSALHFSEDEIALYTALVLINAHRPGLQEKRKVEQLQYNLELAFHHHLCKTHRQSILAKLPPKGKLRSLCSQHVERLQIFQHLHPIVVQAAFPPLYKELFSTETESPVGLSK
In short: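 HEK293T cells transiently co-transfected with GAL4-DBD–full-length human RORγt (nt 142-1635, NM_001001523.1) plus GAL4-firefly and CMV-Renilla luciferase reporters; compounds added 4-6 h post-transfection for 16-20 h in 1.3% FBS, 0.1% DMSO. Firefly signal normalized to DMSO and saturating reference compound, then to Renilla; IC50 from concentration plots.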

[2] = read-out: ThermoFluor® Assay, Kd
[3] = read-out: RORγt (FL) Reporter Assay B or C, IC50
[4] = Conditions B or C, read-out: RORγt (FL) Reporter Assay B or C, IC50

human RORγt ligand binding domain (RORγt LBD), sequence (P51449 other isoform, or with tags, fused parts or gaps): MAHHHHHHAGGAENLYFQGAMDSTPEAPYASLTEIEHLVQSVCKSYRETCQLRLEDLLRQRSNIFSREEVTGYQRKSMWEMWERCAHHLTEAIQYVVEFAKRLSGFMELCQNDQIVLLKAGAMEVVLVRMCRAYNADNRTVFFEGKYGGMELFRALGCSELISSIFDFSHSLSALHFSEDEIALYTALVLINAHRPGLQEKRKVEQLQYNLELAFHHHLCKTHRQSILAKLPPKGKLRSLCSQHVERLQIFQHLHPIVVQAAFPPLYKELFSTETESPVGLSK

SMILES	Kd [1, 2] [µM]	inhibition at 3 µM (full-length human RORγt) [%]	IC50 (full-length human RORγt; [3]) [µM]	RORγt (FL) Reporter Assay B or C, % inhibition (value marked *) (full-length human RORγt; Conditions B or C)	IC50 (full-length human RORγt; [4]) [µM]	inhibition at 6 µM (full-length human RORγt) [%]	Kd ([1]; ThermoFluor® Assay, Kd (μM)) [µM]	IC50 (full-length human RORγt; RORγt (FL) Reporter Assay B or C, IC50 (μM), Conditions B or C) [µM]
C[C@H]1CCCN1C(=O)c1nc(C(=O)NCC(O)(C(F)(F)F)C(F)(F)F)sc1-c1cnc(NC(C)(C)C)cc1C(F)(F)F [Example 271, 5-[6-(tert-Butylamino)-4-(trifluoromethyl)-3-pyridyl]-4-[(2S)-2-methylpyrrolidine-1-carbonyl]-N-[3,3,3-trifluoro-2-hydroxy-2-(trifluoromethyl)propyl]thiazole-2-carboxamide]	0.004	106	0.0057	–	–	–	–	–
C[C@H](Nc1cc(C(F)F)c(-c2sc(C(=O)NCC(C)(C)O)nc2C(=O)N2CCC[C@@H]2C)cn1)C1CC1 [Example 43, 5-(6-(((S)-1-Cyclopropylethyl)amino)-4-(difluoromethyl)pyridin-3-yl)-N-(2-hydroxy-2-methylpropyl)-4-((S)-2-methylpyrrolidine-1-carbonyl)thiazole-2-carboxamide]	0.0049	–	–	–	0.022	107	–	–
CC[C@@H](Nc1cc(C(F)(F)F)c(-c2sc(C(=O)NCC(C)(C)O)nc2C(=O)N2C3CCC2CC3)cn1)C1CC1 (stereo in doubt) [Example 131]	–	–	–	107* %	–	–	0.0014	0.03
C[C@@H](Nc1cc(C(F)F)c(-c2sc(C(=O)NCC(C)(C)O)nc2C(=O)N2CCC[C@@H]2C)cn1)C1CC1 [Example 50, 5-(6-(((R)-1-Cyclopropylethyl)amino)-4-(difluoromethyl)pyridin-3-yl)-N-(2-hydroxy-2-methylpropyl)-4-((S)-2-methylpyrrolidine-1-carbonyl)thiazole-2-carboxamide]	0.071	–	–	100* %	0.058	–	–	–
C[C@H]1CCCN1C(=O)c1nc(C(=O)N[C@@H]2COC[C@H]2O)sc1-c1cnc(NC(C)(C)C)cc1C(F)F [Example 402, 5-[6-(tert-Butylamino)-4-(difluoromethyl)-3-pyridyl]-N-[(3R,4S)-4-hydroxytetrahydrofuran-3-yl]-4-[(2S)-2-methylpyrrolidine-1-carbonyl]thiazole-2-carboxamide]	0.0058	99	0.037	–	–	–	–	–
C[C@H](Nc1cc(C(F)F)c(-c2sc(C(=O)NCC(C)(C)O)nc2C(=O)N2C3CCC2CC3)cn1)C(F)(F)F [Example 136]	0.016	–	–	109* %	0.79	–	–	–
C[C@H]1CCCN1C(=O)c1nc(C(=O)N[C@H]2C[C@H](O)C2)sc1-c1cnc(N[C@@H](C2CC2)C(F)(F)F)cc1C(F)F [Example 310, 5-(6-(((S)-1-Cyclopropyl-2,2,2-trifluoroethyl)amino)-4-(difluoromethyl)pyridin-3-yl)-N-((1r,3S)-3-hydroxycyclobutyl)-4-((S)-2-methylpyrrolidine-1-carbonyl)thiazole-2-carboxamide]	0.0087	92	0.036	–	–	–	–	–
C[C@H](Nc1cc(C(F)F)c(-c2sc(C(=O)N[C@H]3COC[C@@H]3O)nc2C(=O)N2CC(F)(F)C[C@@H]2C)cn1)C(F)(F)F [Example 190]	0.0038	–	–	104* %	0.034	–	–	–
CC[C@@H](Nc1cc(C(F)F)c(-c2sc(C(=O)N[C@H]3C[C@H](O)C3)nc2C(=O)N2CCC[C@@H]2C)cn1)C(F)(F)F [Example 205, 5-(4-(Difluoromethyl)-6-(((1R)-1-(trifluoromethyl)propyl)amino)-3-pyridyl)-N-((1r,3S)-3-hydroxycyclobutyl)-4-((2S)-2-methylpyrrolidine-1-carbonyl)thiazole-2-carboxamide]	0.0068	–	–	103* %	0.033	–	–	–
CC[C@H](Nc1cc(C(F)F)c(-c2sc(C(=O)N[C@H]3CC[C@@H]3O)nc2C(=O)N2CCC[C@@H]2C)cn1)C(F)(F)F (relative stereo) [Example 377, 5-(4-(Difluoromethyl)-6-(((S)-1,1,1-trifluorobutan-2-yl)amino)pyridin-3-yl)-N-((1S*,2S*)-2-hydroxycyclobutyl)-4-((S)-2-methylpyrrolidine-1-carbonyl)thiazole-2-carboxamide]	0.0034	91	0.032	–	–	–	–	–

The remaining molecules from weak to strong by Kd [1, 2], led by results:

Kd [1, 2] [µM]	inhibition at 3 µM (full-length human RORγt) [%]	IC50 (full-length human RORγt; [3]) [µM]	RORγt (FL) Reporter Assay B or C, % inhibition (value marked *) (full-length human RORγt; Conditions B or C)	IC50 (full-length human RORγt; [4]) [µM]	inhibition at 6 µM (full-length human RORγt) [%]	SMILES	Kd ([1]; ThermoFluor® Assay, Kd (μM)) [µM]	IC50 (full-length human RORγt; RORγt (FL) Reporter Assay B or C, IC50 (μM), Conditions B or C) [µM]
0.0034	127	0.037	–	–	–	C[C@H]1CCCN1C(=O)c1nc(C(=O)NC2CCOCC2)sc1-c1cnc(NC(C)(C)C)cc1C(F)F [Example 412, 5-[6-(tert-Butylamino)-4-(difluoromethyl)-3-pyridyl]-4-[(2S)-2-methylpyrrolidine-1-carbonyl]-N-tetrahydropyran-4-yl-thiazole-2-carboxamide]	–	–
0.0033	102	0.047	–	–	–	CC[C@H](Nc1cc(C(F)F)c(-c2sc(C(=O)N[C@H](C)C(C)(C)O)nc2C(=O)N2CCC[C@@H]2C)cn1)C(F)(F)F [Example 267, 5-[4-(Difluoromethyl)-6-[[(1S)-1-(trifluoromethyl)propyl]amino]-3-pyridyl]-N-[(1R)-2-hydroxy-1,2-dimethyl-propyl]-4-[(2S)-2-methylpyrrolidine-1-carbonyl]thiazole-2-carboxamide]	–	–
0.0032	–	–	109* %	0.019	–	CC[C@H](Nc1cc(C(F)F)c(-c2sc(C(=O)N[C@@H](C)[C@H](C)O)nc2C(=O)N2CCC[C@@H]2C)cn1)C(F)(F)F (relative stereo) [Example 217, 5-(4-(Difluoromethyl)-6-(((S)-1,1,1-trifluorobutan-2-yl)amino)pyridin-3-yl)-N-((2S*,3S*)-3-hydroxybutan-2-yl)-4-((S)-2-methylpyrrolidine-1-carbonyl)thiazole-2-carboxamide]	–	–
0.0025	–	–	107* %	0.057	–	CC[C@H](Nc1cc(C(F)F)c(-c2sc(C(=O)NC3CS(=O)(=O)C3)nc2C(=O)N2CCC[C@@H]2C)cn1)C(F)(F)F [Example 240, 5-[4-(Difluoromethyl)-6-[[(1S)-1-(trifluoromethyl)propyl]amino]-3-pyridyl]-N-(1,1-dioxothietan-3-yl)-4-[(2S)-2-methylpyrrolidine-1-carbonyl]thiazole-2-carboxamide]	–	–
0.0016	108	0.018	–	–	–	CC[C@H](Nc1cc(C(F)F)c(-c2sc(C(=O)N[C@H]3CC[C@H]3O)nc2C(=O)N2CCC[C@@H]2C)cn1)C(F)(F)F (relative stereo) [Example 380, 5-(4-(Difluoromethyl)-6-(((S)-1,1,1-trifluorobutan-2-yl)amino)pyridin-3-yl)-N-((1S*,2R*)-2-hydroxycyclobutyl)-4-((S)-2-methylpyrrolidine-1-carbonyl)thiazole-2-carboxamide]	–	–
0.0014	–	–	106* %	0.025	–	CC[C@H](Nc1cc(C(F)(F)F)c(-c2sc(C(=O)N[C@H]3COC[C@@H]3O)nc2C(=O)N2CCC[C@@H]2C)cn1)C(F)(F)F [Example 174, N-((3S,4R)-4-Hydroxytetrahydrofuran-3-yl)-4-((2S)-2-methylpyrrolidine-1-carbonyl)-5-(4-(trifluoromethyl)-6-(((1S)-1-(trifluoromethyl)propyl)amino)-3-pyridyl)thiazole-2-carboxamide]	–	–
0.0012	118	0.009	–	–	–	C[C@H]1CCCN1C(=O)c1nc(C(=O)N[C@@H]2CCC[C@H]2O)sc1-c1cnc(NC(C)(C)C)cc1C(F)F [Example 397, 5-[6-(tert-Butylamino)-4-(difluoromethyl)-3-pyridyl]-N-[(1R,2R)-2-hydroxycyclopentyl]-4-[(2S)-2-methylpyrrolidine-1-carbonyl]thiazole-2-carboxamide]	–	–
0.00074	106	0.036	–	–	–	C[C@H](NC(=O)c1nc(C(=O)N2CC(F)(F)C[C@@H]2C)c(-c2cnc(N[C@@H](C3CC3)C(F)(F)F)cc2C(F)F)s1)C(C)(C)O [Example 313, 5-(6-(((S)-1-Cyclopropyl-2,2,2-trifluoroethyl)amino)-4-(difluoromethyl)pyridin-3-yl)-4-((S)-4,4-difluoro-2-methylpyrrolidine-1-carbonyl)-N—((S)-3-hydroxy-3-methylbutan-2-yl)thiazole-2-carboxamide]	–	–
0.00073	103	0.032	–	–	–	C[C@H](Nc1cc(C(F)F)c(-c2sc(C(=O)N[C@@H]3CCC[C@H]3O)nc2C(=O)N2CC(F)(F)C[C@@H]2C)cn1)C(F)(F)F [Example 420, 4-[(2S)-4,4-Difluoro-2-methyl-pyrrolidine-1-carbonyl]-5-[4-(difluoromethyl)-6-[[(1S)-2,2,2-trifluoro-1-methyl-ethyl]amino]-3-pyridyl]-N-[(1R,2R)-2-hydroxycyclopentyl]thiazole-2-carboxamide]	–	–
0.00015	–	–	–	0.0045	111	C[C@H]1CCCCN1C(=O)c1nc(C(=O)NCC(C)(C)O)sc1-c1cnc(N[C@@H]2CCCCC2(F)F)cc1C(F)(F)F (relative stereo) [Example 31, 5-(6-(((R*)-2,2-Difluorocyclohexyl)amino)-4-(trifluoromethyl)pyridin-3-yl)-N-(2-hydroxy-2-methylpropyl)-4-((S)-2-methylpiperidine-1-carbonyl)thiazole-2-carboxamide]	–	–
